Consider two molecules from ChEMBL document CHEMBL4627293, “Synthesis and in vitro activity of asymmetric indole-based bisamidine compounds against Gram-positive and Gram-negative pathogens” (2020).

Broadly, the MIC is the least concentration at which growth counts as inhibited.

SMILES strings stand for the structures. ≈ marks a conversion by molar mass, not a printed value.

One assay has as its system Enterococcus faecium. Nature of the assay: Antimicrobial activity against vancomycin-resistant Enterococcus faecium ATCC 700221. It is filed as functional.
For `CN(C)C(=N)c1ccc2cc(-c3ccc(Oc4ccc(-c5cc6ccc(C(=N)N(C)C)cc6[nH]5)nc4)cc3)[nH]c2c1`, the lowest concentration to inhibit growth (MIC) was 1 µg/mL (≈ 1.85 µM).
Take `CN(C)C(=N)c1ccc2cc(-c3ccc(Oc4ccc(-c5cc6ccc(C(=N)N(C)C)cc6[nH]5)c(C(F)(F)F)c4)cn3)[nH]c2c1`: the minimum inhibitory concentration (MIC) worked out at 1 µg/mL (≈ 1.64 µM).

The test system of the next assay is Staphylococcus aureus. Briefly: Antimicrobial activity against methicillin-sensitive Staphylococcus aureus ATCC 29213. It is filed as functional.
In the case of `CN(C)C(=N)c1ccc2cc(-c3ccc(Oc4ccc(-c5cc6ccc(C(=N)N(C)C)cc6[nH]5)nc4)cc3)[nH]c2c1`, the minimum inhibitory concentration (MIC) was 0.125 µg/mL (≈ 0.231 µM).
In turn, `CN(C)C(=N)c1ccc2cc(-c3ccc(Oc4ccc(-c5cc6ccc(C(=N)N(C)C)cc6[nH]5)c(C(F)(F)F)c4)cn3)[nH]c2c1` came in with an MIC of 1 µg/mL (≈ 1.64 µM).

In another assay the test system is Klebsiella pneumoniae. Briefly: Antimicrobial activity against NDM-1 producing Klebsiella pneumoniae ATCC BAA-2146. It is filed as functional.
In turn, `CN(C)C(=N)c1ccc2cc(-c3ccc(Oc4ccc(-c5cc6ccc(C(=N)N(C)C)cc6[nH]5)nc4)cc3)[nH]c2c1` registered an MIC of 2 µg/mL (≈ 3.69 µM).
`CN(C)C(=N)c1ccc2cc(-c3ccc(Oc4ccc(-c5cc6ccc(C(=N)N(C)C)cc6[nH]5)c(C(F)(F)F)c4)cn3)[nH]c2c1` displayed a minimal inhibitory concentration (MIC) of 32 µg/mL (≈ 52.5 µM).

Another assay concerns Escherichia coli. Nature of the assay: Antimicrobial activity against Escherichia coli ATCC 25922. It is filed as functional.
Consider `CN(C)C(=N)c1ccc2cc(-c3ccc(Oc4ccc(-c5cc6ccc(C(=N)N(C)C)cc6[nH]5)nc4)cc3)[nH]c2c1`, for which the MIC turned out to be 1 µg/mL (≈ 1.85 µM).
In turn, `CN(C)C(=N)c1ccc2cc(-c3ccc(Oc4ccc(-c5cc6ccc(C(=N)N(C)C)cc6[nH]5)c(C(F)(F)F)c4)cn3)[nH]c2c1` came in with an MIC of 8 µg/mL (≈ 13.1 µM).

A further assay deals with Klebsiella pneumoniae. Nature of the assay: Potency index, ratio of MIC for 2-[4-[4-[6-(N,N-dimethylcarbamimidoyl)-1H-indol-2-yl]phenoxy]phenyl]-N,N-dimethyl-1H-indole-6-carboxamidine to MIC for test compound against ESBL-producing Klebsiella pneumoniae ATCC 700603. It is filed as functional.
On to `CN(C)C(=N)c1ccc2cc(-c3ccc(Oc4ccc(-c5cc6ccc(C(=N)N(C)C)cc6[nH]5)nc4)cc3)[nH]c2c1`, for which the Ratio was 4.

The subject of the next assay is Staphylococcus aureus. Nature of the assay: Antimicrobial activity against methicillin- resistant Staphylococcus aureus ATCC 33591. In kind it is functional.
The molecule `CN(C)C(=N)c1ccc2cc(-c3ccc(Oc4ccc(-c5cc6ccc(C(=N)N(C)C)cc6[nH]5)nc4)cc3)[nH]c2c1` gave an MIC of 0.125 µg/mL (≈ 0.231 µM).
For the molecule `CN(C)C(=N)c1ccc2cc(-c3ccc(Oc4ccc(-c5cc6ccc(C(=N)N(C)C)cc6[nH]5)c(C(F)(F)F)c4)cn3)[nH]c2c1`, it took 0.5 µg/mL (≈ 0.82 µM) to inhibit growth (MIC).

Another assay deals with Staphylococcus epidermidis. Nature of the assay: Antimicrobial activity against methicillin-susceptible Staphylococcus epidermidis ATCC 12228. In kind it is functional.
In turn, `CN(C)C(=N)c1ccc2cc(-c3ccc(Oc4ccc(-c5cc6ccc(C(=N)N(C)C)cc6[nH]5)nc4)cc3)[nH]c2c1` came in with a minimal inhibitory concentration (MIC) of 0.25 µg/mL (≈ 0.462 µM).
In the case of `CN(C)C(=N)c1ccc2cc(-c3ccc(Oc4ccc(-c5cc6ccc(C(=N)N(C)C)cc6[nH]5)c(C(F)(F)F)c4)cn3)[nH]c2c1`, the minimum inhibitory concentration (MIC) came to 0.5 µg/mL (≈ 0.82 µM).

For the next assay, the system named is Providencia rettgeri. Nature of the assay: Antimicrobial activity against Providencia rettgeri ATCC 31052. In kind it is functional.
Regarding `CN(C)C(=N)c1ccc2cc(-c3ccc(Oc4ccc(-c5cc6ccc(C(=N)N(C)C)cc6[nH]5)nc4)cc3)[nH]c2c1`, the MIC was found to be 4 µg/mL (≈ 7.38 µM).
For the molecule `CN(C)C(=N)c1ccc2cc(-c3ccc(Oc4ccc(-c5cc6ccc(C(=N)N(C)C)cc6[nH]5)c(C(F)(F)F)c4)cn3)[nH]c2c1`, the MIC was found to be 128 µg/mL (≈ 210 µM).

In another assay the test system is Klebsiella pneumoniae. Briefly: Potency index, ratio of MIC for 2-[4-[4-[6-(N,N-dimethylcarbamimidoyl)-1H-indol-2-yl]phenoxy]phenyl]-N,N-dimethyl-1H-indole-6-carboxamidine to MIC for test compound against NDM-1 producing Klebsiella pneumoniae ATCC BAA-2146. It is filed as functional.
Take `CN(C)C(=N)c1ccc2cc(-c3ccc(Oc4ccc(-c5cc6ccc(C(=N)N(C)C)cc6[nH]5)nc4)cc3)[nH]c2c1`: the Ratio worked out at 4.

For another assay, the system named is Escherichia coli. Nature of the assay: Potency index, ratio of MIC for 2-[4-[4-[6-(N,N-dimethylcarbamimidoyl)-1H-indol-2-yl]phenoxy]phenyl]-N,N-dimethyl-1H-indole-6-carboxamidine to MIC for test compound against Escherichia coli ATCC 25922. It is filed as functional.
In the case of `CN(C)C(=N)c1ccc2cc(-c3ccc(Oc4ccc(-c5cc6ccc(C(=N)N(C)C)cc6[nH]5)nc4)cc3)[nH]c2c1`, the Ratio turned out to be 4.

In a further assay the test system is Klebsiella pneumoniae. Briefly: Antimicrobial activity against ESBL-producing Klebsiella pneumoniae ATCC 700603. In kind it is functional.
The molecule `CN(C)C(=N)c1ccc2cc(-c3ccc(Oc4ccc(-c5cc6ccc(C(=N)N(C)C)cc6[nH]5)nc4)cc3)[nH]c2c1` gave an MIC of 4 µg/mL (≈ 7.38 µM).
In turn, `CN(C)C(=N)c1ccc2cc(-c3ccc(Oc4ccc(-c5cc6ccc(C(=N)N(C)C)cc6[nH]5)c(C(F)(F)F)c4)cn3)[nH]c2c1` registered a minimum inhibitory concentration (MIC) of 32 µg/mL (≈ 52.5 µM).

In a further assay the test system is Acinetobacter calcoaceticus. Nature of the assay: Antimicrobial activity against Acinetobacter calcoaceticus ATCC 19606. In kind it is functional.
`CN(C)C(=N)c1ccc2cc(-c3ccc(Oc4ccc(-c5cc6ccc(C(=N)N(C)C)cc6[nH]5)nc4)cc3)[nH]c2c1`: the MIC is 64 µg/mL (≈ 118 µM).
Regarding `CN(C)C(=N)c1ccc2cc(-c3ccc(Oc4ccc(-c5cc6ccc(C(=N)N(C)C)cc6[nH]5)c(C(F)(F)F)c4)cn3)[nH]c2c1`, the MIC was above 128 µg/mL.

A further assay relates to Pseudomonas aeruginosa. Briefly: Potency index, ratio of MIC for 2-[4-[4-[6-(N,N-dimethylcarbamimidoyl)-1H-indol-2-yl]phenoxy]phenyl]-N,N-dimethyl-1H-indole-6-carboxamidine to MIC for test compound against Pseudomonas aeruginosa ATCC 27853. It is filed as functional.
Regarding `CN(C)C(=N)c1ccc2cc(-c3ccc(Oc4ccc(-c5cc6ccc(C(=N)N(C)C)cc6[nH]5)nc4)cc3)[nH]c2c1`, the Ratio is given as 4.

The next assay relates to Klebsiella pneumoniae. Nature of the assay: Antimicrobial activity against Klebsiella pneumoniae 7. It is filed as functional.
In turn, `CN(C)C(=N)c1ccc2cc(-c3ccc(Oc4ccc(-c5cc6ccc(C(=N)N(C)C)cc6[nH]5)nc4)cc3)[nH]c2c1` displayed an MIC of 2 µg/mL (≈ 3.69 µM).
As to `CN(C)C(=N)c1ccc2cc(-c3ccc(Oc4ccc(-c5cc6ccc(C(=N)N(C)C)cc6[nH]5)c(C(F)(F)F)c4)cn3)[nH]c2c1`, the minimum inhibitory concentration (MIC) is 32 µg/mL (≈ 52.5 µM).

Another assay has as its system Citrobacter freundii. Briefly: Potency index, ratio of MIC for 2-[4-[4-[6-(N,N-dimethylcarbamimidoyl)-1H-indol-2-yl]phenoxy]phenyl]-N,N-dimethyl-1H-indole-6-carboxamidine to MIC for test compound against Citrobacter freundii ATCC 43864. In kind it is functional.
With `CN(C)C(=N)c1ccc2cc(-c3ccc(Oc4ccc(-c5cc6ccc(C(=N)N(C)C)cc6[nH]5)nc4)cc3)[nH]c2c1`, the Ratio is reported as 4.

The subject of a further assay is Klebsiella pneumoniae. Briefly: Potency index, ratio of MIC for 2-[4-[4-[6-(N,N-dimethylcarbamimidoyl)-1H-indol-2-yl]phenoxy]phenyl]-N,N-dimethyl-1H-indole-6-carboxamidine to MIC for test compound against Klebsiella pneumoniae 7. In kind it is functional.
For the molecule `CN(C)C(=N)c1ccc2cc(-c3ccc(Oc4ccc(-c5cc6ccc(C(=N)N(C)C)cc6[nH]5)nc4)cc3)[nH]c2c1`, the Ratio is reported as 4.

The next assay relates to Enterococcus faecalis. Briefly: Antimicrobial activity against Vancomycin-sensitive Enterococcus faecalis ATCC 29212. It is filed as functional.
As to `CN(C)C(=N)c1ccc2cc(-c3ccc(Oc4ccc(-c5cc6ccc(C(=N)N(C)C)cc6[nH]5)nc4)cc3)[nH]c2c1`, it took 0.5 µg/mL (≈ 0.923 µM) to inhibit growth (MIC).
Regarding `CN(C)C(=N)c1ccc2cc(-c3ccc(Oc4ccc(-c5cc6ccc(C(=N)N(C)C)cc6[nH]5)c(C(F)(F)F)c4)cn3)[nH]c2c1`, the MIC stood at 2 µg/mL (≈ 3.28 µM).

Another assay has as its system Enterococcus faecalis. Nature of the assay: Antimicrobial activity against Vancomycin-resistant Enterococcus faecalis ATCC 51299. It is filed as functional.
`CN(C)C(=N)c1ccc2cc(-c3ccc(Oc4ccc(-c5cc6ccc(C(=N)N(C)C)cc6[nH]5)nc4)cc3)[nH]c2c1`: the minimum inhibitory concentration (MIC) was determined as 0.5 µg/mL (≈ 0.923 µM).
As for `CN(C)C(=N)c1ccc2cc(-c3ccc(Oc4ccc(-c5cc6ccc(C(=N)N(C)C)cc6[nH]5)c(C(F)(F)F)c4)cn3)[nH]c2c1`, the minimum inhibitory concentration (MIC) is 2 µg/mL (≈ 3.28 µM).

For another assay, the system named is Citrobacter freundii. Nature of the assay: Antimicrobial activity against Citrobacter freundii ATCC 43864. In kind it is functional.
`CN(C)C(=N)c1ccc2cc(-c3ccc(Oc4ccc(-c5cc6ccc(C(=N)N(C)C)cc6[nH]5)nc4)cc3)[nH]c2c1` displayed a minimum inhibitory concentration (MIC) of 2 µg/mL (≈ 3.69 µM).
With `CN(C)C(=N)c1ccc2cc(-c3ccc(Oc4ccc(-c5cc6ccc(C(=N)N(C)C)cc6[nH]5)c(C(F)(F)F)c4)cn3)[nH]c2c1`, 16 µg/mL (≈ 26.2 µM) was the least that counted as inhibitory (MIC).

In another assay the test system is Proteus vulgaris. Briefly: Antimicrobial activity against Proteus vulgaris ATCC 29905. In kind it is functional.
`CN(C)C(=N)c1ccc2cc(-c3ccc(Oc4ccc(-c5cc6ccc(C(=N)N(C)C)cc6[nH]5)nc4)cc3)[nH]c2c1` came in with a minimum inhibitory concentration (MIC) of 4 µg/mL (≈ 7.38 µM).
As to `CN(C)C(=N)c1ccc2cc(-c3ccc(Oc4ccc(-c5cc6ccc(C(=N)N(C)C)cc6[nH]5)c(C(F)(F)F)c4)cn3)[nH]c2c1`, it took 32 µg/mL (≈ 52.5 µM) to inhibit growth (MIC).

The subject of another assay is Pseudomonas aeruginosa. Briefly: Antimicrobial activity against Pseudomonas aeruginosa ATCC 27853. In kind it is functional.
Molecule `CN(C)C(=N)c1ccc2cc(-c3ccc(Oc4ccc(-c5cc6ccc(C(=N)N(C)C)cc6[nH]5)nc4)cc3)[nH]c2c1` had a minimal inhibitory concentration (MIC) of 32 µg/mL (≈ 59.1 µM).
Take `CN(C)C(=N)c1ccc2cc(-c3ccc(Oc4ccc(-c5cc6ccc(C(=N)N(C)C)cc6[nH]5)c(C(F)(F)F)c4)cn3)[nH]c2c1`: the minimum inhibitory concentration (MIC) is above 128 µg/mL.
